Experimental findings from ChEMBL document CHEMBL1127101, “Interaction of rigid polyamine analogues with the NMDA receptor complex from rat brain” (Bioorg Med Chem Lett, 1993) are described below.

Assay [1] concerns the target Glutamate NMDA receptor. Description: Tested for the binding of [3H]dizocilpine to NMDA receptor in rat brain membranes in the presence of 500 uM spermidine. The format is cell membranes.
Assay [2] addresses Glutamate NMDA receptor. Description: Tested for the binding of [3H]dizocilpine to DEPC (diethylpyrocarbonate) membranes of rat.
A short description of assay [3]: Tested for the increase in [Ca2+] produced by 30 uM of the compound. The format is functional.

Regarding `Nc1ccc2nc3ccc(N)cc3[n+](-c3ccccc3)c2c1` [PHENOSAFRANINE], the half-maximal inhibitory concentration (IC50) was 4.33 µM in assay [1] and 2.7 µM in assay [2]. The compound also showed an Increase in assay [3] of 78.4%.

Consider `CC[n+]1c(-c2ccccc2)c2cc(N)ccc2c2ccc(N)cc21` [HOMIDIUM BROMIDE], for which the IC50 in assay [1] turned out to be 7.34 µM; in assay [2], 3.13 µM. Moreover, in assay [3], the Increase was 84.7%.

Regarding `Cc1cc2nc3cc(C)c(N)cc3[n+](-c3ccccc3)c2cc1N`, the IC50 in assay [1] was 2.21 µM; in assay [2] it was 3.95 µM. This compound returned an Increase in assay [3] of 77.9%.

Regarding `CC[N+](C)(CC)CCC[n+]1c(-c2ccccc2)c2cc(N)ccc2c2ccc(N)cc21` [PROPIDIUM], the half-inhibitory concentration (IC50) is more than 1000 µM in assay [1] and 6.8 µM in assay [2]. In assay [3], this compound had an Increase of 97.6%.
